What was measured:
CCRF-CEM = experiment: NCI-60 SRB growth inhibition: CCRF-CEM; type: cell-based, human; conditions: Leukemia, 48 hours treatment
K-562 = experiment: NCI-60 SRB growth inhibition: K-562; type: cell-based, human; conditions: K-562, Leukemia, 48 hours treatment; for CC50: Homo sapiens, K562, read-out: LC50 (the source's name)
HOP-92 = experiment: NCI-60 SRB growth inhibition: HOP-92; type: cell-based, human; conditions: HOP-92, Non-small cell lung cancer; 48 hours treatment
SW-620 = experiment: NCI-60 SRB growth inhibition: SW-620; type: cell-based, human; conditions: SW-620, Colon cancer, 48 hours treatment; for CC50: Homo sapiens, read-out: LC50 (the source's name)
SF-295 = experiment: NCI-60 SRB growth inhibition: SF-295; type: cell-based, human; conditions: for CC50: Homo sapiens, SF-295, 48 h, read-out: LC50 (the source's name); for TGI: SF-295, CNS cancer, 48 hours treatment
SF-539 = experiment: NCI-60 SRB growth inhibition: SF-539; type: cell-based, human; conditions: SF-539, CNS cancer; 48 hours treatment
LOX 1MVI = experiment: NCI-60 SRB growth inhibition: LOX 1MVI; type: cell-based, human; conditions: Melanoma, 48 hours treatment
SK-MEL-2 = experiment: NCI-60 SRB growth inhibition: SK-MEL-2; type: cell-based, human; conditions: SK-MEL-2, Melanoma; 48 hours treatment
UACC-257 = experiment: NCI-60 SRB growth inhibition: UACC-257; type: cell-based, human; conditions: for CC50: Homo sapiens, UACC-257, 48 h, read-out: LC50 (the source's name); for TGI: UACC-257, Melanoma, 48 hours treatment
IGROVI = experiment: NCI-60 SRB growth inhibition: IGROVI; type: cell-based, human; conditions: Ovarian cancer, 48 hours treatment; for CC50: Homo sapiens, read-out: LC50 (the source's name)
OVCAR-8 = experiment: NCI-60 SRB growth inhibition: OVCAR-8; type: cell-based, human; conditions: OVCAR-8, Ovarian cancer, 48 hours treatment; for CC50: Homo sapiens, read-out: LC50 (the source's name)
MCF7 = experiment: NCI-60 SRB growth inhibition: MCF7; type: cell-based, human; conditions: MCF7, Breast cancer; 48 hours treatment
ABL1(F317I) = molecular target: T1, ABL1(F317I) (Homo sapiens, UniProt P00519, F317I); experiment: Kinase binding screening: ABL1(F317I); conditions: 10 μM compound, phosphorylated form, read-out: B-POC (binding percentage of control)
T1 construct: purchased Ambit Bioscience (assay service)
Experimental: (§1) Biotinylated kinase ligand was immobilized onto streptavidin coated magnetic beads and washed with blocking buffer. The liganded beads were then incubated with DNA-tagged kinase in the presence of test compound for 1 h at room temperature. Binding reactions were carried out in 20% Seablock, 0.17×PBS, 0.005% Tween 20, 6 mM DTT, in a final volume of 0.04 mL. Beads were then washed with wash buffer (PBS, 0.05% Tween 20), and then incubated with elution buffer (PBS, 0.05% Tween […] non-biotinylated kinase ligand) and eluted. The kinase concentration in the eluate was then measured by quantitative PCR. […] The results of this single dose screening are reported in the form of binding percentage of control (B-POC) which is defined as follows:
(§2) [formula] The negative control signal is obtained by the vehicle and corresponds to B-POC=100%. The positive signal control is detected by a binding positive compound and is B-POC 0%. The B-POC results are the average of duplicate measurements. Only interactions with […] were considered significant and thus used for calculating the selectivity scores (Table 1) of the test compounds as follows:
(§3) [formula] […] The Kd is then calculated according to the following equation:
(§4) [formula] hill slope=−1. A non-linear least square fit with the Levenberg-Marquardt algorithm was implemented to fit the curves (FIG. 3). […]

ABL1(F317L) = molecular target: T2, ABL1(F317L) (Homo sapiens, UniProt P00519, F317L); experiment: Kinase binding screening: ABL1(F317L); conditions: 10 μM compound, phosphorylated form, read-out: B-POC (binding percentage of control)
T2 construct: purchased Ambit Bioscience (assay service)
Experimental: as §1, §2, §3, §4

MDA-MB-468 [1] = experiment: Cell cycle analysis of MDA-MB-468 cells; type: cell-based, human; conditions: MDA-MB-468, within 24 hours
MDA-MB-468 [2] = experiment: Annexin V assay, MDA-MB-468 cells; type: cell-based, human; conditions: MDA-MB-468, higher doses, within 24 hours

T1 sequence (P00519 whole entry F317I): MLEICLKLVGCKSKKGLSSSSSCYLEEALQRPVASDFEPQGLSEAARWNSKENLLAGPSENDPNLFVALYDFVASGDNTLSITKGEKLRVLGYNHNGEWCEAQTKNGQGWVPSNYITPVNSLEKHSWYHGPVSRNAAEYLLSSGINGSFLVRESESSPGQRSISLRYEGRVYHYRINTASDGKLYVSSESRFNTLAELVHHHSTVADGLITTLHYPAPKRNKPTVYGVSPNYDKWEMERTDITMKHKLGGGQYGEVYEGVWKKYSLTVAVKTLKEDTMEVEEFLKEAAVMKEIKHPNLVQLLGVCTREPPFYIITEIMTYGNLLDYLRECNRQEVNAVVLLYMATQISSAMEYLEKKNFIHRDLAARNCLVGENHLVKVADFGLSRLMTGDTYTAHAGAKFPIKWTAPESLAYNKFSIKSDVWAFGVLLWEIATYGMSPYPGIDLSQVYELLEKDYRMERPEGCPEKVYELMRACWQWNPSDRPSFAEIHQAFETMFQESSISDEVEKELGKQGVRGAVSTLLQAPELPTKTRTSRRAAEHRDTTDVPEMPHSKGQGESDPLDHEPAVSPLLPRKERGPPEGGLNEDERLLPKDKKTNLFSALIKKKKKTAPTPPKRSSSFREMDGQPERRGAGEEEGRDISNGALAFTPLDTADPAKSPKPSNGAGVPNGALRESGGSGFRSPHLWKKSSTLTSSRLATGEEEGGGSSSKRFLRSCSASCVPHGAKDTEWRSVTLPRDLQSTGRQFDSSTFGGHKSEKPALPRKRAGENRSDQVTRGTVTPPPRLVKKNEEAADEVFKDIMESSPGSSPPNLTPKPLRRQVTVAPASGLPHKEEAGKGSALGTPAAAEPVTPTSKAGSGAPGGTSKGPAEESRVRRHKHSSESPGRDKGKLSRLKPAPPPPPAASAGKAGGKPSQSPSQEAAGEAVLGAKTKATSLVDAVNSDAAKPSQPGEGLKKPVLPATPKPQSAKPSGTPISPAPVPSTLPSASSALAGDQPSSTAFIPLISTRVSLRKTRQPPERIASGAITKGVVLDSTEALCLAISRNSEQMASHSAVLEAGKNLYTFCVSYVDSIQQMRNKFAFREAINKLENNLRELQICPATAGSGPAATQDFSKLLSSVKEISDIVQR
T2 sequence (P00519 whole entry F317L): as the sequence (P00519 whole entry F317I) above, with I317L counted along it

| SMILES | TGI (CCRF-CEM) | CC50 (K-562) | TGI (K-562) | TGI (HOP-92) | CC50 (SW-620) | TGI (SW-620) | CC50 (SF-295) | TGI (SF-295) | TGI (SF-539) | TGI (LOX 1MVI) | TGI (SK-MEL-2) | CC50 (UACC-257) | TGI (UACC-257) | CC50 (IGROVI) | TGI (IGROVI) | CC50 (OVCAR-8) | TGI (OVCAR-8) | TGI (MCF7) | remaining activity at 10 µM (ABL1(F317I)) | other results |
| --- | --- | --- | --- | --- | --- | --- | --- | --- | --- | --- | --- | --- | --- | --- | --- | --- | --- | --- | --- | --- |
| c1ccc(Cc2cnc(N3CCN(c4ncnc5ccccc45)CC3)nc2)cc1 [Compound 4, 4-(4-(5-benzylpyrimidin-2-yl)piperazin-1-yl)quinazoline] | 64.40 µM | > 100 µM | >100 µM | 24.20 µM | 59.9 µM | 27.70 µM | > 100 µM | 26.00 µM | 28.50 µM | 19.60 µM | 35.80 µM | 41.4 µM | 16.80 µM | > 100 µM | 63.30 µM | 71.3 µM | 25.60 µM | 58.20 µM | 30% | – |
| CCc1cnc(N2CCN(C(=O)c3ccc(CNc4ncnc5ccccc45)cc3)CC2)nc1 [Compound 15, (4-(5-ethylpyrimidin-2-yl)piperazin-1-yl)(4-((quinazolin-4-ylamino)methyl)phenyl)methanone] | 60.90 µM | > 100 µM | >100 µM | 80.09 µM | > 100 µM | 45.10 µM | > 100 µM | 23.10 µM | >100 µM | 28.70 µM | >100 µM | > 100 µM | 26.80 µM | > 100 µM | 49.80 µM | > 100 µM | >100 µM | 72.80 µM | – | remaining activity at 10 µM (ABL1(F317L)): 6.8%; cell cycle effect (MDA-MB-468 [1]): arrest at the G2/M phase of the cell cycle; apoptosis (Annexin V) (MDA-MB-468 [2]): a significant fraction of the tumor cells undergo apoptosis |
| O=C(c1cccc(Nc2ncnc3ccccc23)c1)N1CCN(c2ncc(Cc3ccccc3)cn2)CC1 [Compound 16, (4-(5-benzylpyrimidin-2-yl)piperazin-1-yl)(3-(quinazolin-4-ylamino)phenyl)methanone] | – | > 100 µM | 2.23 µM | – | > 100 µM | 4.27 µM | > 100 µM | 2.24 µM | 4.90 µM | 2.45 µM | 2.69 µM | 5.37 µM | 2.63 µM | 5.01 µM | 1.82 µM | > 100 µM | 3.31 µM | 2.29 µM | 20% | – |
